The values that follow come from ChEMBL document CHEMBL5465560, “Selectivity Literature for EUbOPEN Chemogenomic Library” (2024).

In test [1] the target is T1, Serine/threonine-protein kinase tousled-like 1 (Homo sapiens) (UniProt Q9UKI8).
T1 sequence (whole entry): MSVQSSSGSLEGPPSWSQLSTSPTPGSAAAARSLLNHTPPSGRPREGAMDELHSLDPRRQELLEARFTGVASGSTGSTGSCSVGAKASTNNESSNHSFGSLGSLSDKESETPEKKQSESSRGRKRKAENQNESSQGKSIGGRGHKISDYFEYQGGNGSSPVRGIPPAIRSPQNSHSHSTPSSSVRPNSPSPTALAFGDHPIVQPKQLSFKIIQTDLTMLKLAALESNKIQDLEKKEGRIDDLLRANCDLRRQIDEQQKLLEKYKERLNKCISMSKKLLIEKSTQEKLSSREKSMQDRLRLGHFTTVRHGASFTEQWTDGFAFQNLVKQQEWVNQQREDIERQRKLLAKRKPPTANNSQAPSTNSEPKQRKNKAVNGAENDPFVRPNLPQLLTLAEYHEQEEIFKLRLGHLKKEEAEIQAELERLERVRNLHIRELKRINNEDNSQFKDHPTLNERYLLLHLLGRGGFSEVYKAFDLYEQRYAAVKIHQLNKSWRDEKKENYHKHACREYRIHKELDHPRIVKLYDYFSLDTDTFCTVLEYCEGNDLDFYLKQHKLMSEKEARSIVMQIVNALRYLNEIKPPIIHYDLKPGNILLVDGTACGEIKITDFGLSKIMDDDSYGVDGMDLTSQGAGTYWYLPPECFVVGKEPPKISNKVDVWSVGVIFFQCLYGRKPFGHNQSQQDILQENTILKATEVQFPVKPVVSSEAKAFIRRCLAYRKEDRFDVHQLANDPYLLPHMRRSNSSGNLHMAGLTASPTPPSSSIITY
Briefly: Selectivity interaction (ActivX KiNativ screen (ex vivo kinase selectivity in human PBMCs)) EUB0001619a TLK1. The format is cell-based. As to conditions: PBMC, at 1 µM.

For test [2], the target named is T2, Serine/threonine-protein kinase STK11 (Homo sapiens) (UniProt Q15831).
T2 sequence (whole entry): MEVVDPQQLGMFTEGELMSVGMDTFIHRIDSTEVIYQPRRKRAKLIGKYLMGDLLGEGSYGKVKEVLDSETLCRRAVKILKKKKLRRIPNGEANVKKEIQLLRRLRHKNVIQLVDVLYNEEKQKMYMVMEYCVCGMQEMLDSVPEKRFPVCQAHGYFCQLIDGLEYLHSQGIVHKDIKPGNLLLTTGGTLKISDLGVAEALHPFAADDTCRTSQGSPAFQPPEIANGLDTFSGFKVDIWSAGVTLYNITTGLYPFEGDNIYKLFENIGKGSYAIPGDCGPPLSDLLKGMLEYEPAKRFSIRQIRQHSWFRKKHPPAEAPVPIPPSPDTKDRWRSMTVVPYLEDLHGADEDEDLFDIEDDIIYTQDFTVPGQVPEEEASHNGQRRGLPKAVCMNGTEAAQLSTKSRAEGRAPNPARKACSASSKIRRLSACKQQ
Briefly: Selectivity interaction (KinomeScan (DiscoverX)) EUB0000695a STK11. As to conditions: at 100 nM.

Test [3] concerns Tyrosine-protein kinase ABL1 (Homo sapiens), P00519 [F317I]. Briefly: Selectivity interaction (KinomeScan (DiscoverX)) EUB0000666a ABL1. As to conditions: at 10 µM.
Test [4] deals with T3, Histone-lysine N-methyltransferase SETD7 (Homo sapiens) (UniProt Q8WTS6).
T3 sequence (whole entry): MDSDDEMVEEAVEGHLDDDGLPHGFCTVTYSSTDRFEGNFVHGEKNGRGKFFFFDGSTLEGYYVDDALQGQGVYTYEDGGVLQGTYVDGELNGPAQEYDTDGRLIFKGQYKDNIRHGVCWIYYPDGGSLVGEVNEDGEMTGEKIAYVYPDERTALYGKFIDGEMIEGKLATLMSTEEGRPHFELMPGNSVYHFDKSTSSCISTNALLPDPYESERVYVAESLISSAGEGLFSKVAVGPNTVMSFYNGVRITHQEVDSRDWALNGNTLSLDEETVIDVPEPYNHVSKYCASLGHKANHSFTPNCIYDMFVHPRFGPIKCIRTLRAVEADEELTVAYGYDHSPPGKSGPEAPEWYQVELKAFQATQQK
As to conditions: at 10 µM.

In test [5] the target is Protein arginine N-methyltransferase 1 (Homo sapiens, UniProt Q99873). The conditions noted are these: at 10 µM.
The target of test [6] is Serine/threonine-protein kinase tousled-like 2 (Homo sapiens) (UniProt Q86UE8). Briefly: Selectivity interaction (KinomeScan (DiscoverX)) EUB0001049a TLK2. As to conditions: at 1 µM.
Test [7] concerns the target T4, Dual specificity mitogen-activated protein kinase kinase 4 (Homo sapiens) (UniProt P45985).
T4 sequence (whole entry): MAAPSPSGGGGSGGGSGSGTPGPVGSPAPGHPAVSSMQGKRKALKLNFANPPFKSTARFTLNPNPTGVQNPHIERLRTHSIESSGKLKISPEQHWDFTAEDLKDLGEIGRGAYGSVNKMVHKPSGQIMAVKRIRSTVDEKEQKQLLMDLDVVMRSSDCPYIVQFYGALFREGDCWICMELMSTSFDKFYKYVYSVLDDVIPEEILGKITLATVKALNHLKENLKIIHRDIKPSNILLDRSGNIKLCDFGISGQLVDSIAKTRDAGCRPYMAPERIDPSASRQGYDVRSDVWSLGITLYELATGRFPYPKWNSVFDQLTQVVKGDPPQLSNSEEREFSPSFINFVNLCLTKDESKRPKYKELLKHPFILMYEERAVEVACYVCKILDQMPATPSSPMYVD
Briefly: Selectivity interaction (Kinase panel (DSF assay)) EUB0001558a MAP2K4. (Differential scanning fluorimetry follows unfolding on heating by fluorescence.)

Each structure is given as a SMILES string. A value given as a limit tells only on which side of the number the result lay.

Serine/threonine-protein kinase tousled-like 2 (Homo sapiens), sequence (Q86UE8 whole entry, looked up): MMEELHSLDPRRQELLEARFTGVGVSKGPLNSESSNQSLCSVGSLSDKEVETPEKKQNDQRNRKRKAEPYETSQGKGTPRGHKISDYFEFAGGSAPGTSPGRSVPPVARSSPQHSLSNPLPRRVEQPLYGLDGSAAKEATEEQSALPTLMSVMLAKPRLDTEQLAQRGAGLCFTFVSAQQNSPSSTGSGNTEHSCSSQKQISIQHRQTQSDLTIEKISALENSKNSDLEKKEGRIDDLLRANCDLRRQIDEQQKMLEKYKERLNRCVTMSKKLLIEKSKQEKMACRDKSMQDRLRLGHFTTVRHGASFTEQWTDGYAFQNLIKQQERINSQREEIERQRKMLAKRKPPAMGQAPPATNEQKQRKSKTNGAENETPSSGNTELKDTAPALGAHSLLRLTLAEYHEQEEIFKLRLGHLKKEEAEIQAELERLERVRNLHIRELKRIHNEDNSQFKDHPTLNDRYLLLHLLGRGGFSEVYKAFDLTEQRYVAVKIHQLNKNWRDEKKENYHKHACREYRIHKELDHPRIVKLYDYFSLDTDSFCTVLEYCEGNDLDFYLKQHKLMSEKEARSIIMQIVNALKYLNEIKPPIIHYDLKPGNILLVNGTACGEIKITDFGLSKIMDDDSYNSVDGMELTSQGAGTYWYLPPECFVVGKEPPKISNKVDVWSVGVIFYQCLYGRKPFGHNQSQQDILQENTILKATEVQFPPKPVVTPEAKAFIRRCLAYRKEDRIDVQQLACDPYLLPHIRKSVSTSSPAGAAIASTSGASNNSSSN
Protein arginine N-methyltransferase 1, sequence (Q99873 whole entry, looked up): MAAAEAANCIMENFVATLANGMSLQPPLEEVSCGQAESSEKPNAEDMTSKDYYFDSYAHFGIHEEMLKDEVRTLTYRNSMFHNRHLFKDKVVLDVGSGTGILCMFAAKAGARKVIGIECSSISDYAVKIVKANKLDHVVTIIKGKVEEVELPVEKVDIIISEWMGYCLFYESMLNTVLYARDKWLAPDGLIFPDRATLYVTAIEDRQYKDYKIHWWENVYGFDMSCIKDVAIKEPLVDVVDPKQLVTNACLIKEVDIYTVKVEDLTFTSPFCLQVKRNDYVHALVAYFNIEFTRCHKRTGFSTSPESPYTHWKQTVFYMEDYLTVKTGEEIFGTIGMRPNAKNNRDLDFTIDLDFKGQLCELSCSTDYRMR
Tyrosine-protein kinase ABL1 (Homo sapiens), P00519 [F317I], sequence (P00519 whole entry F317I): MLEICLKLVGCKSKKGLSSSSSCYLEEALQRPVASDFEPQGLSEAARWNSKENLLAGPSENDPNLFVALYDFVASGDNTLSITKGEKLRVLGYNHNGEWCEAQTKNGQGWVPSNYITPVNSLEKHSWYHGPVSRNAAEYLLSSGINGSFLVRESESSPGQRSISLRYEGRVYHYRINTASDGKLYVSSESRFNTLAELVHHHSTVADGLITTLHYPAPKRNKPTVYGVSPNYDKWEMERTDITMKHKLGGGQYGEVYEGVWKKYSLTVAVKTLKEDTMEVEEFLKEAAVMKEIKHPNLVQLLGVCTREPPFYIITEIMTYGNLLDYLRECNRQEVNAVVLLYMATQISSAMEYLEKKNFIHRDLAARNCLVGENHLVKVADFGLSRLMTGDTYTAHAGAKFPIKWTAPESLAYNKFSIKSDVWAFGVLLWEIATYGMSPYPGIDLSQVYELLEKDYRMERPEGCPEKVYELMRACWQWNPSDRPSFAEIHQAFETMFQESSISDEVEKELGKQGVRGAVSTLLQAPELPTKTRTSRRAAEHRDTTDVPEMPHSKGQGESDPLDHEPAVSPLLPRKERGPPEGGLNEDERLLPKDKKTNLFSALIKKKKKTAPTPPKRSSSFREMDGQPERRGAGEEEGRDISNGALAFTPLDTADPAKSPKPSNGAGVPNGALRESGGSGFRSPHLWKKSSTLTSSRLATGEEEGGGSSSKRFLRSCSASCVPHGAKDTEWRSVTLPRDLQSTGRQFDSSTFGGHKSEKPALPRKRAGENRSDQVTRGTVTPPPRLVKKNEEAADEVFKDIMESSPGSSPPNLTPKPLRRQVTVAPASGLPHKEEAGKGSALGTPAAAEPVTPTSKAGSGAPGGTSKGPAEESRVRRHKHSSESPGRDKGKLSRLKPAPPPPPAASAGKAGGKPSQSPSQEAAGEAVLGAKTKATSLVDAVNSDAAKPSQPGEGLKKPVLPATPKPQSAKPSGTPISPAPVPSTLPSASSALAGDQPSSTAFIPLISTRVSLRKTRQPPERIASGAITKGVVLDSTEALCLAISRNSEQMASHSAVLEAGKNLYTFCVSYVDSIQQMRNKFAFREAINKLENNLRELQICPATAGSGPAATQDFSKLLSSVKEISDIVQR

With `N#Cc1cccc(-c2c[nH]c3ncnc(N4CCOCC4)c23)c1`, in test [1], the % of inhibition is -4%.
Take `Cc1cc(F)c(C(=O)Nc2cccc(-c3nncn3C(C)C)n2)cc1-n1cnc(C2CC2)c1`: in test [2], the % of control amounted to 80%.
`O=C(NOC[C@H](O)CO)c1ccc(F)c(F)c1Nc1ccc(I)cc1F`: in test [3], the % of control is 100%.
Turning to `CNCCN1CCC(c2cc(CN(C)C(=O)c3cccc(Oc4ccccc4)c3)ccn2)CC1`, the % activity in test [4] and in test [5] was more than 90% in each case.
In test [6], `COc1cc(Nc2nc(C)cc(-c3cnn4nc(OC)ccc34)n2)cc(C(F)(F)F)c1` yielded a % of control of 98%.
`CC(C)(O)[C@H](F)CN1Cc2cc(NC(=O)c3cnn4cccnc34)c(N3CCOCC3)cc2C1=O` gave a dTM in test [7] of 0.9 K.
